Assay results from the supplement of paper PMC10307832.

What was measured:
Assay in all cases: relative viability (nuclei count vs DMSO), 5 days (fraction); higher = more cells survive
IU1-47 + Alpelisib = compound: CC1=CC(=C(N1C2=CC=C(C=C2)Cl)C)C(=O)CN3CCCCC3 [IU1-47] + Cc1nc(NC(=O)N2CCC[C@H]2C(N)=O)sc1-c1ccnc(C(C)(C)C(F)(F)F)c1 [Alpelisib] (partner 2 µM)
Procedure, shortened: (§1)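 Dosing by pin tool came one day after lung cancer cell lines were seeded in 1536-well plates, using either one drug or a fixed anchor-drug dose plus five library-drug doses (not always all listed) in √10 steps. After 5 days, nuclei were counted on 4× images. Relative viability is treated-well nuclei count divided by vehicle-well nuclei count, and values are medians of duplicate plates.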

IU1-47 + Olaparib = compound: CC1=CC(=C(N1C2=CC=C(C=C2)Cl)C)C(=O)CN3CCCCC3 [IU1-47] + O=C(c1cc(Cc2n[nH]c(=O)c3ccccc23)ccc1F)N1CCN(C(=O)C2CC2)CC1 [Olaparib] (partner 8 µM)
Procedure, shortened: as §1

FG-4592 + Bortezomib = compound: Cc1nc(C(=O)NCC(=O)O)c(O)c2ccc(Oc3ccccc3)cc12 [FG-4592] + CC(C)C[C@H](NC(=O)[C@H](Cc1ccccc1)NC(=O)c1cnccn1)B(O)O [Bortezomib] (partner 0.002 µM)
Procedure, shortened: as §1

FG-4592 + Linsitinib = compound: Cc1nc(C(=O)NCC(=O)O)c(O)c2ccc(Oc3ccccc3)cc12 [FG-4592] + C[C@]1(O)C[C@@H](c2nc(-c3ccc4ccc(-c5ccccc5)nc4c3)c3c(N)nccn32)C1 [Linsitinib] (partner 1 µM)
Procedure, shortened: as §1

Row | Cell Line | relative viability (IU1-47 + Alpelisib; first compound 0.08 µM) | relative viability (IU1-47 + Alpelisib; first compound 0.253 µM) | relative viability (IU1-47 + Alpelisib; first compound 0.8 µM) | relative viability (IU1-47 + Alpelisib; first compound 2.53 µM) | relative viability (IU1-47 + Alpelisib; first compound 8 µM) | relative viability (IU1-47 + Olaparib; first compound 0.08 µM) | relative viability (IU1-47 + Olaparib; first compound 0.253 µM) | relative viability (IU1-47 + Olaparib; first compound 0.8 µM) | relative viability (IU1-47 + Olaparib; first compound 2.53 µM) | relative viability (IU1-47 + Olaparib; first compound 8 µM) | relative viability (FG-4592 + Bortezomib; first compound 0.08 µM) | relative viability (FG-4592 + Bortezomib; first compound 0.253 µM) | relative viability (FG-4592 + Bortezomib; first compound 0.8 µM) | relative viability (FG-4592 + Bortezomib; first compound 2.53 µM) | relative viability (FG-4592 + Bortezomib; first compound 8 µM) | relative viability (FG-4592 + Linsitinib; first compound 0.08 µM) | relative viability (FG-4592 + Linsitinib; first compound 0.253 µM) | relative viability (FG-4592 + Linsitinib; first compound 0.8 µM) | relative viability (FG-4592 + Linsitinib; first compound 2.53 µM) | relative viability (FG-4592 + Linsitinib; first compound 8 µM)
1 | HCC-44 | 0.942 | 0.822 | 0.783 | 0.825 | 0.78 | 1.07 | 0.978 | 1.03 | 1.06 | 0.93 | 0.817 | 0.894 | 0.946 | 0.921 | 0.889 | 0.671 | 0.603 | 0.569 | 0.732 | 0.661
2 | HCC-827 | 1.08 | 1.05 | 0.91 | 1.1 | 0.905 | 0.617 | 0.694 | 0.631 | 0.683 | 0.648 | 1.04 | 0.947 | 1.23 | 0.983 | 0.939 | 1.02 | 0.895 | 0.984 | 0.975 | 0.945
3 | NCI-H2347 | 0.958 | 1.05 | 1.11 | 1.05 | 1.11 | 0.652 | 0.607 | 0.628 | 0.562 | 0.603 | – | 0.623 | 0.806 | 0.782 | 1.14 | 1.09 | – | 0.822 | 0.927 | 1.01
4 | PC-14 | 1.03 | 0.987 | 1.12 | 1.02 | 0.782 | 0.197 | 0.308 | 0.204 | 0.238 | 0.233 | 0.859 | 0.946 | 0.947 | 0.949 | 1.01 | 0.977 | 0.941 | 1 | 0.991 | 0.891
5 | NCI-H1651 | 1.05 | 1.1 | 0.899 | – | 0.597 | 0.155 | 0.162 | 0.17 | 0.183 | 0.185 | 0.834 | 0.826 | 1.02 | 0.893 | 0.856 | 0.986 | 0.998 | 0.915 | 1.09 | 0.815
6 | HARA | 1.02 | 1.13 | 0.925 | 1.1 | 0.604 | 1.02 | – | 0.703 | 0.632 | 0.567 | 1.03 | 1.01 | – | 1.08 | 1.11 | 0.955 | 0.881 | – | 0.996 | 1.03
7 | NCI-H1650 | – | – | – | – | – | 0.756 | 0.797 | 0.736 | 0.968 | 0.797 | 0.207 | 0.238 | 0.23 | 0.205 | 0.186 | – | – | – | – | –
8 | NCI-H1395 | 1.07 | 1.01 | 1.04 | – | 0.991 | 0.46 | 0.432 | 0.44 | 0.452 | 0.412 | – | – | – | – | – | 1.06 | 0.949 | – | 1.05 | 0.824
9 | LU99A | 0.498 | 0.59 | 0.488 | 0.627 | 0.663 | 0.233 | 0.273 | 0.272 | 0.265 | 0.245 | 1.08 | 1.03 | 0.798 | 1.04 | 1.01 | 0.488 | 0.565 | 0.46 | 0.483 | 0.548
10 | NCI-H1355 | 0.89 | 0.948 | 0.894 | 0.797 | 0.79 | 0.781 | 0.826 | 0.751 | – | 0.781 | 1.2 | 1.15 | – | 1.1 | 1.25 | 0.87 | 0.778 | – | 0.843 | 0.736
11 | HCC-78 | 0.387 | 0.319 | 0.391 | 0.327 | 0.294 | 0.803 | 0.792 | 0.805 | 0.59 | 0.813 | 0.558 | 0.51 | 0.406 | 0.453 | 0.371 | 0.599 | 0.476 | 0.374 | 0.494 | 0.506
12 | NCI-H1563 | 0.909 | 0.87 | 0.871 | 0.942 | 0.816 | – | – | – | – | – | 0.647 | 0.843 | 0.751 | 0.8 | 0.661 | 1.27 | 1.24 | 1.19 | 1.27 | 1.22
13 | HCC-15 | 0.99 | 0.926 | 0.978 | 0.825 | 0.82 | 0.75 | 0.722 | 0.767 | 0.711 | 0.662 | 1.01 | 0.913 | 1.07 | 1.07 | 0.999 | 0.874 | 0.805 | 0.93 | 0.831 | 0.914
14 | EKVX | 1.21 | 1.08 | 1.04 | 1.12 | 0.741 | 0.827 | 1.06 | 0.896 | – | 0.87 | 1.1 | 0.94 | 1.06 | 1.17 | 0.885 | 1.01 | 0.916 | 0.948 | 0.989 | 0.989
15 | NCI-H2087 | 1.23 | 1.01 | 1.15 | 1.21 | 0.909 | 0.587 | 0.633 | 0.563 | 0.646 | 0.476 | 0.775 | 0.864 | 0.983 | 0.832 | 0.789 | 0.865 | 0.713 | 1.13 | 0.878 | 1.14
16 | LK-2 | 1.13 | 1.23 | 1.63 | 0.997 | 0.628 | 0.935 | 0.958 | 0.802 | 0.745 | 0.641 | – | – | – | – | – | 0.434 | 0.615 | 0.383 | 0.662 | 0.424
17 | NCI-H1437 | 1.13 | 0.967 | 0.921 | 1.05 | 0.718 | 0.623 | 0.615 | 0.618 | 0.633 | 0.549 | 0.537 | 0.581 | 0.63 | 0.458 | 0.378 | 0.995 | 0.976 | 0.99 | 0.95 | 0.786
18 | COR-L23 | 0.686 | 0.947 | 0.869 | 0.951 | 0.975 | 0.382 | 0.389 | 0.314 | 0.396 | 0.405 | 1.03 | 0.874 | 1.26 | 0.888 | 0.889 | 0.832 | 0.746 | 0.915 | 0.913 | 0.912
